Data on 18 compounds can be found in patent publication US20250136606A1, “MODULATORS OF TRPML, THEIR COMPOSITIONS AND METHODS OF USE” (Caraway Therapeutics, Inc., priority 2021, published 2025).

Like-named read-outs stand apart in the source and are kept apart here. A value given as a limit tells only on which side of the number the result lay.

Assay type in all cases: cell-based
Assay [1] addresses T1, TRPML2 (Homo sapiens, UniProt Q8IZK6).
T1 construct: expressed in transfected cells
T1 sequence (Q8IZK6 1-566): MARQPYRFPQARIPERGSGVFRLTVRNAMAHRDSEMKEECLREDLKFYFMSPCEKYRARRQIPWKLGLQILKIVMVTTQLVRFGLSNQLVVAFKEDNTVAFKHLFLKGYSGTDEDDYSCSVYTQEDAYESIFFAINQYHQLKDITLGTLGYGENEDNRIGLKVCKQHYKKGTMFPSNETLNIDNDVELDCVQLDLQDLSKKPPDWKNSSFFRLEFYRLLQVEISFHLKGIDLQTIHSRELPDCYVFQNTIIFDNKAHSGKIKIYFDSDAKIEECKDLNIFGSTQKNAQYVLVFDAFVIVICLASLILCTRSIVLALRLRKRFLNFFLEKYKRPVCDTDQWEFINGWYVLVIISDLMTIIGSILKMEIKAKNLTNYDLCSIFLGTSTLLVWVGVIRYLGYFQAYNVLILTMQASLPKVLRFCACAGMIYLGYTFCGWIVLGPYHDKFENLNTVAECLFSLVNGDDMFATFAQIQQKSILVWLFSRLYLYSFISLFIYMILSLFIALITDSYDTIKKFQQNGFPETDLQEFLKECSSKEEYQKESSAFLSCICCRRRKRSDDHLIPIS
Description: Fluorescent TRPML2 assay (performed as for TRPML1, substituting the TRPML2 subtype). The gist of the method:
(§1)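 HEK-293 Trex cells with doxycycline-induced (0.5 ug/mL) surface-directed human TRPML subtype, loaded with 1 μM Fluo4-AM, resuspended in Ringer's with 10 mM calcium. Compounds at 20 μM to 6 nM final in half-log steps, triplicate; fluorescence ex 480/em 540; EC50 by non-linear regression versus plate controls.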

Assay [2] deals with TRPML1 (Homo sapiens, UniProt Q9GZU1). Description: Fluorescent TRPML1 assay (Fluo4-AM calcium fluorescence in doxycycline-induced HEK-293 Trex cells). The gist of the method: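 HEK-293 Trex cells stably expressing surface-directed mutant human TRPML1, induced with 0.5 µg/mL doxycycline overnight, were loaded with 1 µM Fluo4-AM and added to compound (6 nM–20 µM final, half-log steps, triplicate) in Ringer's with 10 mM calcium. Fluorescence ex 480/em 540; EC50 by non-linear regression versus plate controls.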

Assay [3] has as its target T2, TRPML3 (Homo sapiens, UniProt Q8TDD5).
T2 construct: expressed in transfected cells
T2 sequence (Q8TDD5 1-553): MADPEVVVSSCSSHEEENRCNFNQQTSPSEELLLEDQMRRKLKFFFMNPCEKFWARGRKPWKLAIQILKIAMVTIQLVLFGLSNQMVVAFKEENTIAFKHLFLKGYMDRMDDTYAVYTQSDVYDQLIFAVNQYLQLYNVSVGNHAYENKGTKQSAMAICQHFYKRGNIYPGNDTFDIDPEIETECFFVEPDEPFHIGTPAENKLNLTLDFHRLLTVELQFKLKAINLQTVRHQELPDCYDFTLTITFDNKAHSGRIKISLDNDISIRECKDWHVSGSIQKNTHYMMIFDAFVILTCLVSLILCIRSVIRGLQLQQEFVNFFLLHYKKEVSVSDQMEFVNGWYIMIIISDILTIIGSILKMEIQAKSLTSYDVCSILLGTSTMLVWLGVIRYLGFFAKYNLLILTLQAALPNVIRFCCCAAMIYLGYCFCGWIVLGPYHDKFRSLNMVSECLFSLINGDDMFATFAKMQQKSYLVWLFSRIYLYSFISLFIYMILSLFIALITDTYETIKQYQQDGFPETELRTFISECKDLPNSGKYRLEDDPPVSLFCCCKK
Kind of assay: Fluorescent TRPML3 assay (performed as for TRPML1, substituting the TRPML3 subtype). The gist of the method: as §1

Sequence of TRPML1 (Q9GZU1 whole entry L15A/L16A/L577A/L578A, form open): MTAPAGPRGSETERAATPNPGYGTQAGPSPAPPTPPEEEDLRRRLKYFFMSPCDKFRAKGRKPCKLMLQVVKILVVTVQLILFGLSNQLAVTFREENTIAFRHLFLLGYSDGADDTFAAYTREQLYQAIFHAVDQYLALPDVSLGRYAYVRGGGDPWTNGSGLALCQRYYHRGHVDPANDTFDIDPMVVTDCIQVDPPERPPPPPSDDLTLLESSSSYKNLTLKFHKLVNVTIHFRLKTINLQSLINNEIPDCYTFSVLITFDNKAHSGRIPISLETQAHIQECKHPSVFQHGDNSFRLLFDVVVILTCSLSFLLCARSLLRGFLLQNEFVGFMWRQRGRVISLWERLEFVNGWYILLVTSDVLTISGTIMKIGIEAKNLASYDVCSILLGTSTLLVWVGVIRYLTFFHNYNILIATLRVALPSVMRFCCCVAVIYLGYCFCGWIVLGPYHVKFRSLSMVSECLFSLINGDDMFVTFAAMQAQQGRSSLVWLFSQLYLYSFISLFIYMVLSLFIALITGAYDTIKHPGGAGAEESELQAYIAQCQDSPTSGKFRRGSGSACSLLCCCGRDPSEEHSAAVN

`C[C@@H]1CN(c2ncnc3c2c(C(F)F)cn3C2CCCCC2)[C@@H](C)CN1C(=O)OC(C)(C)C` [Compound 627, tert-butyl (2R,5S)-4-(7-cyclohexyl-5-(difluoromethyl)-7H-pyrrolo[2,3-d]pyrimidin-4-yl)-2,5-dimethylpiperazine-1-carboxylate]: the EC50 in assay [1] is over 2000 nM; in assay [2], 100 to 500 nM; in assay [3] it was 100 to 500 nM.
For `Cc1nccnc1-c1cn(-c2cc(F)cc(F)c2)c2ncnc(N3CCN(C(=O)OC(C)(C)C)C[C@@H]3C)c12` [Compound 246, tert-butyl (S)-4-(7-(3,5-difluorophenyl)-5-(3-methylpyrazin-2-yl)-7H-pyrrolo[2,3-d]pyrimidin-4-yl)-3-methylpiperazine-1-carboxylate], the concentration for a half-maximal effect (EC50) in assay [1] (fluorescent calcium assay) lay in the range of 500 to 2000 nM; in assay [2] (fluorescent calcium assay), 500 to 2000 nM; in assay [3] (fluorescent calcium assay), 100 to 500 nM.
Turning to `C[C@H]1CN(C(=O)OC(C)(C)C)CCN1c1ncnc2c1c(C1CCCC1)cn2-c1cccc(Cl)c1` [Compound 158, tert-Butyl (S)-4-(7-(3-chlorophenyl)-5-cyclopentyl-7H-pyrrolo[2,3-d]pyrimidin-4-yl)-3-methylpiperazine-1-carboxylate], the 50% effective concentration (EC50) in assay [1] (fluorescent calcium assay), in assay [2] (fluorescent calcium assay) and in assay [3] (fluorescent calcium assay) was under 100 nM in each case.
For the compound `C[C@@H]1CN(c2ncnc3c2c(N2CCCC2)cn3-c2cc(C#N)ccn2)CCN1C(=O)OC(C)(C)C` [Compound 416, tert-butyl (R)-4-(7-(4-cyanopyridin-2-yl)-5-(pyrrolidin-1-yl)-7H-pyrrolo[2,3-d]pyrimidin-4-yl)-2-methylpiperazine-1-carboxylate], the concentration for a half-maximal effect (EC50) in assay [1] (fluorescent calcium assay), in assay [2] (fluorescent calcium assay) and in assay [3] (fluorescent calcium assay) was under 100 nM throughout.
As to `COc1cc(OC(F)(F)F)cc(-n2cc(C3CC3)c3c(N4CCN(C(=O)OC(C)(C)C)C[C@@H]4C)ncnc32)c1` [Compound 264, tert-butyl (S)-4-(5-cyclopropyl-7-(3-methoxy-5-(trifluoromethoxy)phenyl)-7H-pyrrolo[2,3-d]pyrimidin-4-yl)-3-methylpiperazine-1-carboxylate], the concentration for a half-maximal effect (EC50) in assay [1] (fluorescent calcium assay) is 500 to 2000 nM; in assay [2] (fluorescent calcium assay), 100 to 500 nM; in assay [3] (fluorescent calcium assay), 100 to 500 nM.
With `C[C@@H]1CN(c2ncnc3c2c(-n2cccn2)cn3-c2cccc(Cl)c2)CCN1C(=O)OC(C)(C)C` [Compound 332, tert-butyl (R)-4-(7-(3-chlorophenyl)-5-(1H-pyrazol-1-yl)-7H-pyrrolo[2,3-d]pyrimidin-4-yl)-2-methylpiperazine-1-carboxylate], the concentration for a half-maximal effect (EC50) in assay [1] (fluorescent calcium assay) was 500 to 2000 nM; in assay [2] (fluorescent calcium assay) it was under 100 nM; in assay [3] (fluorescent calcium assay) it was under 100 nM.
On to `Cc1cn(-c2cc(F)cc(Cl)c2)c2ncnc(N3C[C@@H](C)N(C(=O)OC(C)(C)C)C[C@@H]3C)c12` [Compound 677, tert-butyl (2R,5S)-4-(7-(3-chloro-5-fluorophenyl)-5-methyl-7H-pyrrolo[2,3-d]pyrimidin-4-yl)-2,5-dimethylpiperazine-1-carboxylate], for which the results for the EC50 in assay [1], in assay [2] and in assay [3] were 100 to 500 nM, under 100 nM and under 100 nM, respectively.
`C#Cc1ccnc(-n2cc(C3CC3)c3c(N4C[C@@H](C)N(C(=O)OC(C)(C)C)C[C@@H]4C)ncnc32)c1` [Compound 715, tert-butyl (2R,5S)-4-(5-cyclopropyl-7-(4-ethynylpyridin-2-yl)-7H-pyrrolo[2,3-d]pyrimidin-4-yl)-2,5-dimethylpiperazine-1-carboxylate]: the EC50 in assay [1], in assay [2] and in assay [3] was under 100 nM in each case.
For `C[C@H]1CN(C(=O)OC(C)(C)C)CCN1c1ncnc2c1c(C(F)F)cn2-c1cc(C#N)ccn1` [Compound 514, tert-butyl (S)-4-(7-(4-cyanopyridin-2-yl)-5-(difluoromethyl)-7H-pyrrolo[2,3-d]pyrimidin-4-yl)-3-methylpiperazine-1-carboxylate], the half-maximal effective concentration (EC50) in assay [1], in assay [2] and in assay [3] was under 100 nM in each case.
Take `Cc1cn(-c2cccc(C#N)c2)c2ncnc(N3C[C@@H](C)N(C(=O)OC(C)(C)C)C[C@@H]3C)c12` [Compound 669, tert-butyl (2R,5S)-4-(7-(3-cyanophenyl)-5-methyl-7H-pyrrolo[2,3-d]pyrimidin-4-yl)-2,5-dimethylpiperazine-1-carboxylate]: the EC50 was 500 to 2000 nM in assay [1], under 100 nM in assay [2] and under 100 nM in assay [3].
For the compound `Cc1cn(-c2cc(C#N)ccn2)c2ncnc(N3C[C@@H](C)N(C(=O)OC(C)(C)C)C[C@@H]3C)c12` [Compound 477, tert-butyl (2R,5S)-4-(7-(4-cyanopyridin-2-yl)-5-methyl-7H-pyrrolo[2,3-d]pyrimidin-4-yl)-2,5-dimethylpiperazine-1-carboxylate], the 50% effective concentration (EC50) in assay [1] (fluorescent calcium assay), in assay [2] (fluorescent calcium assay) and in assay [3] (fluorescent calcium assay) was under 100 nM throughout.
On to `Cc1cn(-c2cc(F)ccn2)c2ccnc(N3C[C@@H](C)N(C(=O)OC(C)(C)C)C[C@@H]3C)c12` [Compound 701, tert-butyl (2R,5S)-4-(1-(4-fluoropyridin-2-yl)-3-methyl-1H-pyrrolo[3,2-c]pyridin-4-yl)-2,5-dimethylpiperazine-1-carboxylate], for which the EC50 in assay [1] is over 2000 nM; in assay [2], under 100 nM; in assay [3], 100 to 500 nM.
`C[C@H]1CN(C(=O)OC(C)(C)C)CCN1c1ncnc2c1c(C1CC1)cn2-c1ccc(C#N)n1C` [Compound 456, tert-butyl (S)-4-(7-(5-cyano-1-methyl-1H-pyrrol-2-yl)-5-cyclopropyl-7H-pyrrolo[2,3-d]pyrimidin-4-yl)-3-methylpiperazine-1-carboxylate]: the half-maximal effective concentration (EC50) was 500 to 2000 nM in assay [1] (fluorescent calcium assay), 500 to 2000 nM in assay [2] (fluorescent calcium assay) and 100 to 500 nM in assay [3] (fluorescent calcium assay).
Take `Cc1nccnc1-c1cn(-c2ccc(F)cc2)c2ncnc(N3C[C@@H](C)N(C(=O)OC(C)(C)C)C[C@@H]3C)c12` [Compound 181, tert-butyl (2R,5S)-4-(7-(4-fluorophenyl)-5-(3-methylpyrazin-2-yl)-7H-pyrrolo[2,3-d]pyrimidin-4-yl)-2,5-dimethylpiperazine-1-carboxylate]: the EC50 in assay [1] (fluorescent calcium assay) was in the range of 500 to 2000 nM; in assay [2] (fluorescent calcium assay), 100 to 500 nM; in assay [3] (fluorescent calcium assay) it was 100 to 500 nM.
Regarding `C[C@H]1CN(C(=O)OC(C)(C)C)CCN1c1nccc2c1c(C1(C)CC1)cn2-c1cc(C#N)ccn1` [Compound 612, tert-butyl (S)-4-(1-(4-cyanopyridin-2-yl)-3-(1-methylcyclopropyl)-1H-pyrrolo[3,2-c]pyridin-4-yl)-3-methylpiperazine-1-carboxylate], the values for the half-maximal effective concentration (EC50) in assay [1], in assay [2] and in assay [3] were 500 to 2000 nM, under 100 nM and 100 to 500 nM, respectively.
Consider `C[C@H]1CN(C(=O)OC(C)(C)C)CCN1c1ncnc2c1c(C1CC1)cn2-c1cccc(F)c1F` [Compound 217, tert-butyl (S)-4-(5-cyclopropyl-7-(2,3-difluorophenyl)-7H-pyrrolo[2,3-d]pyrimidin-4-yl)-3-methylpiperazine-1-carboxylate], for which the EC50 in assay [1] (fluorescent calcium assay) is 500 to 2000 nM; in assay [2] (fluorescent calcium assay), 100 to 500 nM; in assay [3] (fluorescent calcium assay), 100 to 500 nM.
Consider `C[C@@H]1CN(c2ncnc3c2c(C(F)(F)F)cn3-c2cc(F)ccn2)[C@@H](C)CN1C(=O)OC(C)(C)C` [Compound 505, tert-butyl (2R,5S)-4-(7-(4-fluoropyridin-2-yl)-5-(trifluoromethyl)-7H-pyrrolo[2,3-d]pyrimidin-4-yl)-2,5-dimethylpiperazine-1-carboxylate], for which the half-maximal effective concentration (EC50) is over 2000 nM in assay [1], under 100 nM in assay [2] and under 100 nM in assay [3].
Consider `C[C@H]1CN(C(=O)OC(C)(C)C(F)(F)F)CCN1c1ncnc2c1c(C1CC1)cn2C1CCCCC1` [Compound 325, 1,1,1-trifluoro-2-methylpropan-2-yl (S)-4-(7-cyclohexyl-5-cyclopropyl-7H-pyrrolo[2,3-d]pyrimidin-4-yl)-3-methylpiperazine-1-carboxylate], for which the values for the concentration giving a half-maximal response (EC50) in assay [1] (fluorescent calcium assay), in assay [2] (fluorescent calcium assay) and in assay [3] (fluorescent calcium assay) were 100 to 500 nM, 100 to 500 nM and under 100 nM, respectively.
